The record followed here is patent US20250161243A1, “MEF2 TRANSCRIPTIONAL ACTIVATORS TO TREAT NEUROLOGIC CONDITIONS” (The Scripps Research Institute, priority 2022, published 2025).

pEC50: −log10 of the molar value. Where a name gives a salt, the structure may show the parent alone. Some results are limits rather than exact numbers.

One experiment deals with MEF2 transcriptional activity. In words: MEF2 transcriptional activity screen (Luciferase-MEF2 reporter in human neural progenitor cells). The following applies: Homo sapiens, read-out: qAC50 [M]. It counts as cell-based.
Turning to `O=C(NOCCO)c1cc(CN2OCCCC2=O)c(F)c(F)c1Nc1ccc(I)cc1F` [CH-4987655], the EC50 was 1.07e-07 M.

Still in this experiment, the particulars now being: Homo sapiens; concentration for half-maximal activity derived from the hill equation model; MEF2 luciferase reporter; read-out: qAC50.
With `COC(=O)C1=C(C)NC(C)=C(C(=O)OC(C)C)C1c1ccccc1[N+](=O)[O-]` (centres unmarked), the pEC50 was 5.81. For `CSCCOC(=O)C1=C(C)NC(C)=C(C(=O)OCCSC)C1c1ccccc1[N+](=O)[O-]`, the pEC50 is 5.68. With `CC(=O)C(=Cc1ccccc1)C(C)=O`, the pEC50 was 4.80. On to `Cn1cc(-c2ccc(S(=O)(=O)n3ccc(/C=C/C(=O)Nc4ccccc4N)c3)cc2)cn1` [4SC-202], for which the pEC50 was 4.76. `CC(CO)(CO)NCc1ccc2c3c(cccc13)-c1ccccc1-2` [773U82]: the pEC50 was 4.72. `O=c1cc(-c2ccc(O)cc2)oc2cc(O)cc(O)c12` [APIGENIN]: the pEC50 is 5.33. Take `CCCNC(=O)c1ccc2c(c1)N(C(C)CN1CCCC1)c1ccccc1S2` (centres unmarked) [Apadoline]: the pEC50 is 4.71. `CC[C@@H]1C(=O)N(C)c2cnc(Nc3ccc(C(=O)NC4CCN(C)CC4)cc3OC)nc2N1C1CCCC1` [BI-2536]: the pEC50 is 6.68. As for `COc1ccc(C(=O)/C(Br)=C/C(=O)O)cc1` [Bromebrate sodium], the pEC50 was below 4.70.

As to `N/C(=N\Nc1ccccc1)c1ccccc1` [CBS-1114], the pEC50 was below 4.70.

As for `CN(C)CCCNC(=O)/C(=C/CCCCC(=O)NO)COc1cccc2ccccc12` [CG-200745], the pEC50 is 6.67. In the case of `O=C(NO)c1cnc(N2C[C@@H]3[C@H](C2)[C@H]3NCc2ccc3cc(F)ccc3n2)nc1` [CHR-3996], the pEC50 was 6.55. `O=C(NOCC1CC1)c1ccc(F)c(F)c1Nc1ccc(I)cc1Cl` [CI-1040]: the pEC50 is 6.07. As for `O=c1oc(CCN2CCN(c3ccccc3)CC2)c(-c2ccc(Cl)cc2)o1` [CLODOXOPONE], the pEC50 is below 4.70. Take `C#Cc1cccc(Nc2ncnc3cc(OC)c(OCCCCCCC(=O)NO)cc23)c1` [CUDC-101]: the pEC50 is 5.98.

In the case of `CCCc1cc(O)c2c(c1)OC(C)(C)[C@@H]1CCC(C)=C[C@@H]21` [DELTA-9-TETRA-[…]], the pEC50 was 5.64. Turning to `CCCCCCC(C)(C)c1cc(O)c2c(c1)OC(C)(C)[C@H]1CC=C(CO)C[C@H]21` [Dexanabinol], the pEC50 was 5.10.

Consider `O=C(NO)c1ccc(C2=Nc3ccccc3Oc3ccccc32)cc1` [EVP-0334], for which the pEC50 was 5.52.

As for `CCN(CC)Cc1ccc2cc(COC(=O)Nc3ccc(C(=O)NO)cc3)ccc2c1` [Givinostat hydrochloride], the pEC50 was 6.01. `O=C(NO)c1cnc(N2CCN(S(=O)(=O)c3ccc4ccccc4c3)CC2)nc1` [JNJ-16241199]: the pEC50 was 6.80.

With `C/C(=N\NC(=O)c1ccc(C(=O)O)s1)c1csc(-c2ccc(Cl)c(Cl)c2)c1O` [ONO-7746], the pEC50 was 5.59. As for `Cc1sc2c(c1C)C(c1ccc(Cl)cc1)=N[C@@H](CC(=O)Nc1ccc(O)cc1)c1nnc(C)n1-2` [OTX-015], the pEC50 is 6.35. In the case of `CCOC(=O)OC(C)OC(=O)CNC(=O)[C@@H](CSSC[C@@H](N)CCSC)Cc1ccccc1` (some centres unmarked) [PL-37], the pEC50 was 4.89. In the case of `Cc1[nH]c2ccccc2c1CCNCc1ccc(/C=C/C(=O)NO)cc1` [Panobinostat lactate], the pEC50 is 7.91.

Regarding `CC(C)OC(=O)CCC/C=C\C[C@H]1C(=O)C=C[C@@H]1/C=C/[C@@H](O)CCc1ccccc1` [Posaraprost], the pEC50 is below 5.30. For the molecule `Cn1nccc1Nc1nccc(-c2ccn([C@H](CO)c3ccc(Cl)c(F)c3)c(=O)c2)n1` [RG-7842], the pEC50 is 4.91. As for `COc1cc(F)c(F)c(Nc2ccc(I)cc2F)c1NS(=O)(=O)C1(C[C@H](O)CO)CC1` [Refametinib], the pEC50 is 5.56. For `C=C(C)[C@]12C[C@@H](C)[C@@]34O[C@](Cc5ccccc5)(O[C@@H]1[C@@H]3C=C(COC(=O)Cc1ccc(O)c(OC)c1)C[C@]1(O)C(=O)C(C)=C[C@@H]41)O2` [Resiniferatoxin], the pEC50 was 8.29. The same measure, in the same setting: with `CN(C)CCNC(=O)c1cccc2cc3ccccc3nc12` [SN-22995] the figure was below 4.70.

For the molecule `COc1ccc2nc(-c3cccc(F)c3)cc(O)c2c1OP(=O)(OCc1ccccc1)OCc1ccccc1` [TRX-818], the pEC50 was 5.00. Turning to `CC(=O)Nc1ccc(C(=O)Nc2ccccc2N)cc1` [Tacedinaline], the pEC50 was 4.88. Consider `CC(C)c1ccc(CN2CCN(C(c3ccc(F)cc3)c3ccc(F)cc3)CC2)c(=O)c(NCCO)c1` [U 92032], for which the pEC50 was below 4.70. In the case of `CC(C)(CO)c1cc2cc(NC(=O)C3(c4ccc5c(c4)OC(F)(F)O5)CC3)c(F)cc2n1C[C@@H](O)CO` [VX-661], the pEC50 is below 4.70. Consider `CCN(CC)CCNc1ccc(CNC)c2sc3ccccc3c(=O)c12` [WIN 33156], for which the pEC50 was below 4.70. For `CN(C)Cc1c(C(=O)NCCOc2ccc(C(=O)NO)cc2)oc2ccccc12` [abexinostat], the pEC50 is 5.66. Regarding `O=C(/C=C/c1cccc(S(=O)(=O)Nc2ccccc2)c1)NO` [belinostat], the pEC50 is 6.17. As for `COc1cc2c(cc1O)C[C@H]1c3c(cc(O)c(OC)c3-2)CCN1C` [boldine], the pEC50 was 4.88. With `C[C@H](NC(=O)C(=O)Nc1ccccc1C(C)(C)C)C(=O)N[C@@H](CC(=O)O)C(=O)COc1c(F)c(F)cc(F)c1F` [emricasan], the pEC50 is 5.06.

As for `Nc1ccccc1NC(=O)c1ccc(CNC(=O)OCc2cccnc2)cc1` [entinostat], the pEC50 is 6.83. In the case of `CCCCc1nc2cc(/C=C/C(=O)NO)ccc2n1CCN(CC)CC` [pracinostat], the pEC50 is 6.68.

Consider `O=C(CCCCCCC(=O)Nc1cccnc1)NO` [pyroxamide], for which the pEC50 was below 4.70.

In the case of `Cn1cc(CNCC2CCN(c3ncc(C(=O)NO)cn3)CC2)c2ccccc21` [quisinostat], the pEC50 was 7.04.

`COc1cccc(-c2ccc(NC(=O)C3=C(C(=O)O)CCC3)c(F)c2)c1` [vidofludimus]: the pEC50 is below 4.70.

Still in this experiment, the particulars now being: concentration for half-maximal activity derived from the hill equation model; MEF2 luciferase reporter; read-out: qAC50.
Consider `COc1ccc2[nH]cc(CCN(C(C)C)C(C)C)c2c1` [5-MeO-DIPT], for which the pEC50 was below 4.70. For `CC1(C)C(=O)Nc2cc3[nH]c(-c4ccncc4)nc3cc21` [ADIBENDAN], the pEC50 was below 4.70. Take `COC(=O)C1=C(C)NC(C)=C(C(=O)OCC(C)=O)C1c1ccccc1[N+](=O)[O-]` (centres unmarked) [ARANIDIPINE]: the pEC50 is 5.51.

Regarding `Cc1nn(C)cc1CN1CCC(c2ccc(C(=O)Nc3ccccc3N)cc2)CC1` [AZD-9468], the pEC50 is below 4.70.

With `Clc1ccc2oc(C(c3ccccc3Cl)n3ccnc3)cc2c1` (centres unmarked) [BECLICONAZOLE], the pEC50 was 5.29. Take `COC(=O)Nc1nc2cc(C3(O)c4ccccc4C(=O)N3c3cc(Cl)ccc3C)ccc2[nH]1` (centres unmarked) [BMS-908662]: the pEC50 was below 4.70.

With `CC(C)Nc1cc(-c2c[nH]c(C(=O)N[C@H](CO)c3cccc(Cl)c3)c2)c(Cl)cn1` [BVD-523], the pEC50 was 6.01. Turning to `CCCCCN=C(N)Nc1nc(-c2cnc(C)[nH]2)cs1` [CP 66948], the pEC50 is below 4.70. Consider `CN(C)CCOc1ccc2[nH]c(C(=O)NCC#Cc3ccc(C(=O)NO)cc3)cc2c1` [CRA-026440], for which the pEC50 is 4.89. In the case of `CN1Cc2ccccc2[C@@H]2c3cccc4[nH]cc(c34)C[C@H]21` [CY-208-243], the pEC50 is 4.71.

With `COc1ccc2[nH]c(C(=O)c3ccccc3)cc2c1` [D-64131], the pEC50 is 5.43. Turning to `COC(=O)Nc1nc2cc(Sc3ccc(NC(=O)[C@H](C)N)cc3)ccc2[nH]1` [DENIBULIN], the pEC50 was 5.82. Turning to `CN(C)CCCn1c(=O)c2ccccc2c2ccccc21` [FANTRIDONE], the pEC50 was 5.27. Turning to `O=C(Nc1nc2cccc(-c3ccc(CN4CCS(=O)(=O)CC4)cc3)n2n1)C1CC1` [Filgotinib], the pEC50 is below 4.70. For `CCN1CCC(Oc2c(C#N)ncc3[nH]c4ncccc4c23)CC1` [GDC-0425], the pEC50 is 5.90. Same read-out and setting: with `O=C(Cc1ccc(-c2ccc(N3CCOCC3)cc2)cn1)NCc1cccc(F)c1` [KX-02] the figure was 6.24; with `O=C(/C=C/c1ccc(CN(CCO)CCc2c[nH]c3ccccc23)cc1)NO` [LAQ 824], 6.28; with `C[C@H](Nc1cc(-c2cnn(C)c2)cc(Nc2cnccn2)n1)c1ccc(F)cc1` [NS-018], 4.95. For the molecule `CCCCc1ccc2[nH]c(NC(=O)OC)nc2c1` [PARBENDAZOLE], the pEC50 is 5.76. With `CCC(C)SSc1ncc[nH]1` (centres unmarked) [PX-12], the pEC50 was 6.00.

For `CCOC(=O)/C(=C/c1ncc([N+](=O)[O-])n1C)C(C)=O` [Propenidazole], the pEC50 is 5.51. Turning to `COc1ccc2c(c1)-c1nn(CCCN(C)C)c3ccc([N+](=O)[O-])c(c13)N2` [Pyrazoloacridine], the pEC50 is below 4.70.

As for `CN(C)C(C(=O)Nc1ccc2c(=O)[nH]ccc2c1)c1ccsc1` (centres unmarked) [Verosudil], the pEC50 was 5.12. `Cn1cnc2c(F)c(Nc3ccc(Br)cc3F)c(C(=O)NOCCO)cc21` [binimetinib]: the pEC50 was below 4.70. `Cc1c(OCC(F)(F)F)ccnc1C[S@@+]([O-])c1nc2ccccc2[nH]1` [dexlansoprazole]: the pEC50 was below 4.70. In the case of `CN(C)c1ccc2nc3ccc(N(C)C)cc3[s+]c2c1` [methylthioninium chloride], the pEC50 was 5.42. For the molecule `CC(C)(C)c1[nH]cnc1/C=c1\[nH]c(=O)/c(=C/c2ccccc2)[nH]c1=O` [plinabulin], the pEC50 was 5.57. As for `CN(C)Cc1ccc(S(=O)(=O)n2ccc(/C=C/C(=O)NO)c2)cc1` [resminostat], the pEC50 is 5.91. Same read-out and setting: with `O=C(CCCCCCNC(=O)c1cnc(N(c2ccccc2)c2ccccc2)nc1)NO` [ricolinostat] the figure was 5.55.

As to Acriflavine, the pEC50 is 5.64. For CY-190602, the pEC50 is 5.62.

Regarding Chidamide, the pEC50 is 7.44. As for OXAMFLATIN, the pEC50 is below 4.70. As to XR 5944, the pEC50 is 5.34. Same read-out and setting: the result for retapamulin reads 4.71.

The experiment is the same for the next values; noted with them: read-out: qAC50.
With `CC[C@]1(O)C[C@@H]2CN(CCc3c([nH]c4ccccc34)[C@@](C(=O)OC)(c3cc4c(cc3OC)N(C)[C@H]3[C@@](O)(C(=O)OC)[C@H](OC(C)=O)[C@]5(CC)C=CCN6CC[C@]43[C@@H]65)C2)C1` [Vinblastine sulfate], the pEC50 was 7.17.
